Experimental data reported in ChEMBL document CHEMBL3301361, “Experimental in vitro DMPK and physicochemical data on a set of publicly disclosed compounds”.
Values after ≈ are worked out from the molar mass of the structure shown.

What was measured:
[1] = in vitro; settings: human, plasma
[2] = in vitro; settings: human
[3] = physchem; settings: pH 7.4 buffer
[4] = physchem
[5] = physchem; remark: listed apart in the source
[6] = in vitro; settings: Dunkin Hartley, guinea pig, plasma
[7] = in vitro; settings: Beagle, dog, plasma
[8] = in vitro; settings: SD, HW or BN, rat, plasma
[9] = in vitro; settings: human, hepatocytes
[10] = physchem; remark: listed apart in the source
[11] = in vitro; settings: mouse, plasma
[12] = physchem; settings: octan-1-ol/water, pH 7.4, LogD7.4
[13] = in vitro; settings: hepatocytes

Structure (SMILES)	fraction unbound at 5 h ([1]; PPB)	pKa [4]	pKa [5]	fraction unbound at 5 h [6]	fraction unbound at 5 h [7]	fraction unbound at 5 h [8]	also measured
COc1ccc(CCN2CCC(Nc3nc4ccccc4n3Cc3ccc(F)cc3)CC2)cc1 [ASTEMIZOLE]	0.0262	6.33	9.62				microsomal CLint ([2]; liver microsomes): 66 µL/min/mg; solubility thermodynamic [3]: 5.6 µM (≈ 2.57 µg/mL)
O=C(CC1CCN(Cc2ccn(-c3ccc(C(F)(F)F)cn3)c2)CC1)NC(c1ccc(F)cc1)c1ccc(F)cc1	0.0053			0.013	0.004	0.0033	
Cc1nn(-c2ccccc2)c(N)c1-c1ccccc1				0.0328	0.0313	0.0457	fraction unbound at 5 h [1]: 0.013; hepatocyte CLint [9]: 32.4 µL/min/1e6 cells
O=C(O)c1ccccc1N1CCC(CN2CCC(Oc3ccc(Cl)c(Cl)c3)CC2)CC1		7.7	8.9				microsomal CLint ([2]; liver microsomes): 8 µL/min/mg; pKa [10]: 3.2
CC#Cc1cncc(-c2ccc3c(c2)C2(N=C(C)C(N)=N2)[C@]2(CC[C@H](OC)CC2)C3)c1 (some centres undefined)	0.0801			0.072			fraction unbound at 5 h [11]: 0.0041
NC(=O)[C@@H](CCC(F)(F)F)N(Cc1ccc(-c2ncon2)cc1F)S(=O)(=O)c1ccc(Cl)cc1				0.0081		0.0119	fraction unbound at 5 h [11]: 0.0149
COc1ccc(CC(=O)NCc2ccccc2-c2ccccc2C(=O)NCCc2cccnc2)cc1	0.0066			0.17	0.0705	0.0836	fraction unbound at 5 h [11]: 0.0872
O=P(c1ccccc1)(c1ccccc1)N(Cc1ccccn1)c1cccnc1				0.299	0.208	0.145	fraction unbound at 5 h [1]: 0.0234; fraction unbound at 5 h [11]: 0.17
Cc1nc2ccc(Oc3ccc(F)cc3)cc2c(=O)n1C[C@H]1CCCN(C(C)C)C1		2.65					logD [12]: 2.4
N=C(N)SCCc1cccc(CCSC(=N)N)c1		9.1	11				
Cc1ccc(S(=O)(=O)Nc2c(C(=O)N[C@@H](C)C(C)(C)C)c(C)nn2C(C)C)cc1	0.0457			0.271	0.0736	0.0418	hepatocyte CLint [13]: 10 µL/min/1e6 cells; pKa [10]: 4.5; hepatocyte CLint [9]: < 3 µL/min/1e6 cells
CN(C)CCn1nnnc1SCC1=C(C(=O)O)N2C(=O)[C@@H](NC(=O)Cc3csc(N)n3)[C@H]2SC1 [CEFOTIAM]		4.61	8.18				pKa [10]: 2.41
N#Cc1cc(F)c(Cl)cc1O[C@H](CCN)c1ccccc1	0.289		9.6	0.101	0.0457		microsomal CLint ([2]; liver microsomes): < 3 µL/min/mg; logD [12]: 0.77
CCN(Cc1cc(C(F)(F)F)ccc1-c1cc(CC(=O)O)ccc1OC)C(=O)NCc1ccccc1 [AM-211]	0.0171			0.0256	0.0039	0.0191	hepatocyte CLint [13]: 18.2 µL/min/1e6 cells; microsomal CLint ([2]; microsomes): 67.6 µL/min/mg; solubility thermodynamic [3]: 1380 µM (≈ 691 µg/mL)
O=C([C@H]1CCCCN1)N1CCN(c2nc(NCc3ccc(Cl)cc3Cl)c3cccnc3n2)CC1		5.7	9				hepatocyte CLint [13]: 9.88 µL/min/1e6 cells; microsomal CLint ([2]; liver microsomes): 24 µL/min/mg; logD [12]: 2.27
COc1ccnc(CSc2nc3ccccc3[nH]2)c1		3	5.3				hepatocyte CLint [13]: > 150 µL/min/1e6 cells; microsomal CLint ([2]; liver microsomes): 86 µL/min/mg; logD [12]: 2.89
COc1cc2ncnc(Nc3ccc(F)c(Cl)c3)c2cc1NC(=O)/C=C/CN1CCCCC1 [DACOMITINIB ANHYDROUS]	0.0179	5.2	9.36				hepatocyte CLint [13]: 9.77 µL/min/1e6 cells; solubility thermodynamic [3]: 6.8 µM (≈ 3.2 µg/mL); logD [12]: 4.1; hepatocyte CLint [9]: < 3 µL/min/1e6 cells
c1ccc([C@@H]([C@H](c2ccccc2)N2CCCC2)N2CCCC2)cc1	0.17			0.489		0.329	fraction unbound at 5 h [11]: 0.339
CNC(=O)CCCN(C)C(=O)c1ccc2c(c1)c1c(n2C)CC[C@@H](C2CCOCC2)C1				0.329	0.258	0.0146	fraction unbound at 5 h [1]: 0.0366
C#CCn1c(=O)c2c(-c3cncn3C)n(Cc3ccnc4ccc(Cl)cc34)nc2n(CC2CC2)c1=O		4.44					
OCc1cc(C(O)CNCCCCCCOCCCCc2ccccc2)ccc1O (centres undefined) [SALMETEROL]	0.0661			0.0477	0.0179	0.0736	hepatocyte CLint [13]: 85 µL/min/1e6 cells; microsomal CLint ([2]; liver microsomes): 58 µL/min/mg
O=P(c1ccccc1)(c1ccccc1)N(Cc1ccccn1)Cc1ccccn1				0.569			fraction unbound at 5 h [1]: 0.0049; fraction unbound at 5 h [11]: 0.0968

Structure (SMILES)	fraction unbound at 5 h ([1]; PPB)	pKa [4]	pKa [5]	fraction unbound at 5 h [6]	fraction unbound at 5 h [7]	fraction unbound at 5 h [8]	also measured
Cc1nn(-c2ccc(F)cc2)c(NS(=O)(=O)c2ccc(C(F)(F)F)cc2)c1C(=O)N[C@@H](C)C(C)(C)C	0.0136			0.0736		0.0293	hepatocyte CLint [13]: 5.01 µL/min/1e6 cells; microsomal CLint ([2]; microsomes): 10 µL/min/mg; pKa [10]: 3.4; logD [12]: 2.35
CCCN(c1cccnc1)P(=O)(c1ccccc1)c1ccccc1				0.309	0.176	0.151	fraction unbound at 5 h [1]: 0.0205; fraction unbound at 5 h [11]: 0.124
Cc1ccccc1C[C@@H](C(=O)O)N1CCC(CN2CCC(Oc3ccc(Cl)c(Cl)c3)CC2)CC1		7.55	9.2				microsomal CLint ([2]; liver microsomes): < 3 µL/min/mg; solubility thermodynamic [3]: 12.3 µM (≈ 6.22 µg/mL)
O=C1CC2(CCCC2)CC(=O)N1CCCCN1CCN(c2ncccn2)CC1 [BUSPIRONE]		5.48	7.61				microsomal CLint ([2]; liver microsomes): 116 µL/min/mg; solubility thermodynamic [3]: 1450 µM (≈ 557 µg/mL); hepatocyte CLint [9]: 38.9 µL/min/1e6 cells
O=C(O)C(c1ccccc1)N1CCC(N2CCC(Oc3ccc(Cl)c(Cl)c3)CC2)CC1 (centres undefined)		6.5	9.1				microsomal CLint ([2]; liver microsomes): 6 µL/min/mg; logD [12]: 2.23
COc1ccc2c(C)cc(N[C@H]3CC[C@H](NCc4cn(C)c5cccnc45)C3)nc2c1	0.0262			0.0854			fraction unbound at 5 h [11]: 0.0647
CC(C)N1CCN(Cc2cnc(-c3cc(-c4cccc5[nH]ccc45)cc4[nH]ncc34)o2)CC1 [NEMIRALISIB]	0.03	2.4	8.26			0.0358	logD [12]: 3.49
CC1=NC(c2cccc(-c3cncc(Cl)c3)c2)(C2CC2)N=C1N (centres undefined)		2.28	6.04				
Cc1nnc(C(C)C)n1[C@H]1C[C@H]2CC[C@@H](C1)N2CC[C@H](NC(=O)C1CCC(F)(F)CC1)c1ccccc1 [MARAVIROC]		2.4	9.66				
N#Cc1ccc2ccc(=O)n(CCN3CC[C@@H](NCc4ccc5c(n4)NC(=O)CO5)[C@@H](F)C3)c2c1	0.204			0.715	0.591	0.285	hepatocyte CLint [13]: 16.6 µL/min/1e6 cells; fraction unbound at 5 h [11]: 0.465; logD [12]: 0.66
O=C(O)[C@@H](Cc1ccccc1)N1CCC(CN2CCC(Oc3ccc(Cl)c(Cl)c3)CC2)CC1	0.314	7	9.3				microsomal CLint ([2]; liver microsomes): < 3 µL/min/mg
O=C(N[C@@H]1COc2cccc(-c3ccc(CO)nc3)c2C1)c1ccc(OCC(F)(F)F)nc1	0.0374			0.11	0.0477	0.0752	
OC(Cn1cncn1)(Cn1cncn1)c1ccc(F)cc1F [FLUCONAZOLE]		2.18	2.72				fraction unbound at 5 h [1]: 0.858
C[C@H](CN(C(=O)c1ccc(C#N)cc1)c1ccccn1)N1CCN(c2cccc3c2OCCO3)CC1 [LECOZOTAN]	0.009			0.139		0.179	fraction unbound at 5 h [11]: 0.139
c1ccc([C@H]([C@@H](c2ccccc2)N2CCCC2)N2CCCC2)cc1	0.17			0.489		0.339	fraction unbound at 5 h [11]: 0.271
NC(=O)N1c2ccccc2C=Cc2ccccc21 [CARBAMAZEPINE]	0.294			0.24	0.271	0.266	hepatocyte CLint [13]: 19.9 µL/min/1e6 cells; microsomal CLint ([2]; microsomes): 7 µL/min/mg; solubility thermodynamic [3]: 776 µM (≈ 183 µg/mL); logD [12]: 1.65; hepatocyte CLint [9]: 5.25 µL/min/1e6 cells
CCS(=O)(=O)c1ccc(-c2cc(C(F)(F)F)ccc2OCC(=O)O)c(C)c1	0.0428			0.0928	0.03	0.0705	fraction unbound at 5 h [11]: 0.208; pKa [10]: 3.2; logD [12]: -0.45
CN(C)N(C)C(=O)[C@@]1(Cc2ccccc2)CCCN(C(=O)[C@@H](Cc2c[nH]c3ccccc23)NC(=O)C(C)(C)N)C1 [ANAMORELIN]				0.22	0.0633	0.16	logD [12]: 2.1; hepatocyte CLint [9]: 8.91 µL/min/1e6 cells
CN(C)CCC(c1ccc(Cl)cc1)c1ccccn1 (centres undefined) [CHLORPHENIRAMINE]		5.86					
COc1ccc(CCO[C@@H]2CCCC[C@H]2N2CC[C@@H](O)C2)cc1OC [VERNAKALANT]	0.629			0.309	0.772	0.776	hepatocyte CLint [9]: 6.46 µL/min/1e6 cells
c1ccc([C@H]([C@@H](c2ccccc2)N2CCCCC2)N2CCCCC2)cc1	0.0606			0.5	0.163	0.365	hepatocyte CLint [13]: 12 µL/min/1e6 cells; fraction unbound at 5 h [11]: 0.253; microsomal CLint ([2]; liver microsomes): 13.8 µL/min/mg
O=C(NCC12CC3CC(CC(C3)C1)C2)c1cc(CN2CC3CNCC(C2)O3)ccc1Cl	0.0467	9	10				hepatocyte CLint [13]: 9 µL/min/1e6 cells; microsomal CLint ([2]; microsomes): 15 µL/min/mg; logD [12]: 1.55
